Results taken from ChEMBL document CHEMBL6127154, “Pursuing Polypharmacology: Benzothiopyranoindoles as G-Quadruplex Stabilizers and Topoisomerase I Inhibitors for Effective Anticancer Strategies” (ACS Med Chem Lett, 2024).
Activity calls are given as the source filed them. The calls are words filed in the database; no cut-off is given here.

Key:
HL-60 = experiment: Antiproliferative activity against human HL-60 cells assessed as growth inhibition incubated for 48 hrs by SRB assay; format: functional
MOLT-4 = experiment: Antiproliferative activity against human MOLT-4 cells assessed as growth inhibition incubated for 48 hrs by SRB assay; format: functional
RPMI-8226 = experiment: Antiproliferative activity against human RPMI-8226 cells assessed as growth inhibition incubated for 48 hrs by SRB assay; format: functional
EKVX = experiment: Antiproliferative activity against human EKVX cells assessed as growth inhibition incubated for 48 hrs by SRB assay; format: functional
HOP-62 = experiment: Antiproliferative activity against human HOP-62 cells assessed as growth inhibition incubated for 48 hrs by SRB assay; format: functional
HOP-92 = experiment: Antiproliferative activity against human HOP-92 cells assessed as growth inhibition incubated for 48 hrs by SRB assay; format: functional
NCI-H226 = experiment: Antiproliferative activity against human NCI-H226 cells assessed as growth inhibition incubated for 48 hrs by SRB assay; format: functional
NCI-H322M = experiment: Antiproliferative activity against human NCI-H322M cells assessed as growth inhibition incubated for 48 hrs by SRB assay; format: functional
NCI-H460 = experiment: Antiproliferative activity against human NCI-H460 cells assessed as growth inhibition incubated for 48 hrs by SRB assay; format: functional
COLO 205 = experiment: Antiproliferative activity against human COLO 205 cells assessed as growth inhibition incubated for 48 hrs by SRB assay; format: functional
HCT-116 [1] = experiment: Antiproliferative activity against human HCT-116 cells assessed as growth inhibition incubated for 48 hrs by SRB assay; format: functional
HCT-15 = experiment: Antiproliferative activity against human HCT-15 cells assessed as growth inhibition incubated for 48 hrs by SRB assay; format: functional
HT-29 = experiment: Antiproliferative activity against human HT-29 cells assessed as growth inhibition incubated for 48 hrs by SRB assay; format: functional
KM12 = experiment: Antiproliferative activity against human KM12 cells assessed as growth inhibition incubated for 48 hrs by SRB assay; format: functional
SF-268 = experiment: Antiproliferative activity against human SF-268 cells assessed as growth inhibition incubated for 48 hrs by SRB assay; format: functional
SNB-19 = experiment: Antiproliferative activity against human SNB-19 cells assessed as growth inhibition incubated for 48 hrs by SRB assay; format: functional
SNB-75 = experiment: Antiproliferative activity against human SNB-75 cells assessed as growth inhibition incubated for 48 hrs by SRB assay; format: functional
U-251 = experiment: Antiproliferative activity against human U-251 cells assessed as growth inhibition incubated for 48 hrs by SRB assay; format: functional
LOX IMVI = experiment: Antiproliferative activity against human LOX IMVI cells assessed as growth inhibition incubated for 48 hrs by SRB assay; format: functional
Malme-3M = experiment: Antiproliferative activity against human Malme-3M cells assessed as growth inhibition incubated for 48 hrs by SRB assay; format: functional
MDA-MB-435 = experiment: Antiproliferative activity against human MDA-MB-435 cells assessed as growth inhibition incubated for 48 hrs by SRB assay; format: functional
SK-MEL-2 = experiment: Antiproliferative activity against human SK-MEL-2 cells assessed as growth inhibition incubated for 48 hrs by SRB assay; format: functional
SK-MEL-5 = experiment: Antiproliferative activity against human SK-MEL-5 cells assessed as growth inhibition incubated for 48 hrs by SRB assay; format: functional
UACC-257 = experiment: Antiproliferative activity against human UACC-257 cells assessed as growth inhibition incubated for 48 hrs by SRB assay; format: functional
UACC-62 = experiment: Antiproliferative activity against human UACC-62 cells assessed as growth inhibition incubated for 48 hrs by SRB assay; format: functional
IGROV-1 = experiment: Antiproliferative activity against human IGROV-1 cells assessed as growth inhibition incubated for 48 hrs by SRB assay; format: functional
OVCAR-3 = experiment: Antiproliferative activity against human OVCAR-3 cells assessed as growth inhibition incubated for 48 hrs by SRB assay; format: functional
OVCAR-4 = experiment: Antiproliferative activity against human OVCAR-4 cells assessed as growth inhibition incubated for 48 hrs by SRB assay; format: functional
OVCAR-5 = experiment: Antiproliferative activity against human OVCAR-5 cells assessed as growth inhibition incubated for 48 hrs by SRB assay; format: functional
OVCAR-8 = experiment: Antiproliferative activity against human OVCAR-8 cells assessed as growth inhibition incubated for 48 hrs by SRB assay; format: functional
NCI/ADR-RES = experiment: Antiproliferative activity against human NCI/ADR-RES cells assessed as growth inhibition incubated for 48 hrs by SRB assay; format: functional
ACHN = experiment: Antiproliferative activity against human ACHN cells assessed as growth inhibition incubated for 48 hrs by SRB assay; format: functional
TK-10 = experiment: Antiproliferative activity against human TK-10 cells assessed as growth inhibition incubated for 48 hrs by SRB assay; format: functional
PC-3 = experiment: Antiproliferative activity against human PC-3 cells assessed as growth inhibition incubated for 48 hrs by SRB assay; format: functional
MCF7 = experiment: Antiproliferative activity against human MCF7 cells assessed as growth inhibition incubated for 48 hrs by SRB assay; format: functional
MDA-MB-231 = experiment: Antiproliferative activity against human MDA-MB-231 cells assessed as growth inhibition incubated for 48 hrs by SRB assay; format: functional
Hs-578T = experiment: Antiproliferative activity against human Hs-578T cells assessed as growth inhibition incubated for 48 hrs by SRB assay; format: functional
BT-549 = experiment: Antiproliferative activity against human BT-549 cells assessed as growth inhibition incubated for 48 hrs by SRB assay; format: functional
T47D = experiment: Antiproliferative activity against human T47D cells assessed as growth inhibition incubated for 48 hrs by SRB assay; format: functional
Quadruplex DNA [2] = experiment: Stabilization of human telomeric 26 hybrid G4 quadruplex DNA incubated for 10 mins by circular dichroism spectroscopic analysis; format: nucleic-acid assay
Quadruplex DNA [3] = experiment: Thermal stabilization of human c-Myc G4 quadruplex DNA assessed as change in melting temperature (deltaT1/2) incubated for 10 mins by circular dichroism spectroscopic analysis (reference value: 70.5 +/- 0.1 degreeC); format: nucleic-acid assay
Quadruplex DNA [4] = experiment: Thermal stabilization of human Tel23-p G4 quadruplex DNA assessed as change in melting temperature (deltaT1/2) incubated for 10 mins by circular dichroism spectroscopic analysis (reference value: 68.2 +/- 0.1 degreeC); format: nucleic-acid assay
[5] = target: DNA topoisomerase 1 (Homo sapiens) (UniProt P11387); experiment: Inhibition of human Topoisomerase 1 assessed as relaxation of supercoiled plasmid pBR322 DNA at 2.5 uM incubated for 1 hr by ethidium bromide staining based agarose gel electrophoresis
Sequence of DNA topoisomerase 1 (Homo sapiens) (P11387 whole entry): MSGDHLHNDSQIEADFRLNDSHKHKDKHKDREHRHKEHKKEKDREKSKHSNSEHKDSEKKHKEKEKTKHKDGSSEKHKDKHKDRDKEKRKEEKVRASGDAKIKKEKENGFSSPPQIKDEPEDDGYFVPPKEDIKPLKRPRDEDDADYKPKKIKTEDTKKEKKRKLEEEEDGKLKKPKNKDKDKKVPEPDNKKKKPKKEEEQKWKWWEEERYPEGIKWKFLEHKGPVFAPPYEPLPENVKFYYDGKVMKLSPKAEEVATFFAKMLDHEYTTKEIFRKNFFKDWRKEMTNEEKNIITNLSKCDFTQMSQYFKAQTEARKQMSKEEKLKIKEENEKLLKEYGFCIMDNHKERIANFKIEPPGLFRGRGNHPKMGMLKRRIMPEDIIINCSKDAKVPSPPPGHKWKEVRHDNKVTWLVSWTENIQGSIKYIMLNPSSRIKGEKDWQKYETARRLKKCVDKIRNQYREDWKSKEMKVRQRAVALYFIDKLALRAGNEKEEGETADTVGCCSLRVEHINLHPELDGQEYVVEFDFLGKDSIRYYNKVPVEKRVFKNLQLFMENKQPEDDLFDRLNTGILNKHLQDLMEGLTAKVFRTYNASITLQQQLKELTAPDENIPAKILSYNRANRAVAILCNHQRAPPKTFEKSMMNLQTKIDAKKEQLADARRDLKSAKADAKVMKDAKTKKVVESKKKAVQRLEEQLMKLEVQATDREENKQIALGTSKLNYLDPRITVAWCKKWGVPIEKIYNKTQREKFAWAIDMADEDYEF

Homo sapiens = organism: Homo sapiens; experiment: Inhibition of human Topoisomerase II assessed as relaxation of supercoiled plasmid pBR322 DNA at 2.5 uM incubated for 1 hr by ethidium bromide staining based agarose gel electrophoresis
HCT-116 [6] = experiment: Induction of DNA damage in human HCT-116 cells assessed as increase in gammaH2AX level incubated for 24 hrs by immunofluorescence staining based analysis; format: functional, cell-based
HCT-116 [7] = experiment: Induction of DNA damage in human HCT-116 cells assessed as increase in 53BP1 foci positive cells incubated for 24 hrs by immunofluorescence staining based analysis; format: functional, cell-based

Q: What does the source list for CCN(CC)CCn1c2ccc(OC)cc2c2sc3cc(OC)ccc3c(=O)c21?
A: GI (HL-60): 1.77 µM; GI (MOLT-4): 0.383 µM; GI (RPMI-8226): 1.47 µM; GI (EKVX): 1.6 µM; GI (HOP-62): 2.32 µM; GI (HOP-92): 1.13 µM; GI (NCI-H226): 2.46 µM; GI (NCI-H322M): 1.59 µM; GI (NCI-H460): 1.08 µM; GI (COLO 205): 1.39 µM; GI (HCT-116 [1]): 0.659 µM; GI (HCT-15): 0.861 µM; GI (HT-29): 1.52 µM; GI (KM12): 2 µM; GI (SF-268): 1.87 µM; GI (SNB-19): 2.43 µM; GI (SNB-75): 1.11 µM; GI (U-251): 1.55 µM; GI (LOX IMVI): 1.3 µM; GI (Malme-3M): 1.59 µM; GI (MDA-MB-435): 1.73 µM; GI (SK-MEL-2): 2.1 µM; GI (SK-MEL-5): 1.74 µM; GI (UACC-257): 1.92 µM; GI (UACC-62): 1.8 µM; GI (IGROV-1): 1.53 µM; GI (OVCAR-3): 2.12 µM; GI (OVCAR-4): 1.84 µM; GI (OVCAR-5): 1.92 µM; GI (OVCAR-8): 1.93 µM; GI (NCI/ADR-RES): 1.24 µM; GI (ACHN): 1 µM; GI (TK-10): 2.33 µM; GI (PC-3): 1.34 µM; GI (MCF7): 1.16 µM; GI (MDA-MB-231): 1.54 µM; GI (Hs-578T): 1.96 µM; GI (BT-549): 2.24 µM; GI (T47D): 2 µM; Activity (Quadruplex DNA [2]): Active; ΔTm (Quadruplex DNA [3]): > 20 °C; ΔTm (Quadruplex DNA [4]): > 20 °C; inhibition [5]: Active; inhibition (Homo sapiens): Active; Activity (HCT-116 [6]): Active; Activity (HCT-116 [7]): Active

Q: For CCN(CC)CCn1c2ccc(O)cc2c2sc3cc(OC)ccc3c(=O)c21, which GI (HL-60) is on record?
A: 1.72 µM

Q: And the GI (MOLT-4)?
A: 0.389 µM

Q: And the GI (RPMI-8226)?
A: 1.95 µM

Q: What about the GI (EKVX) of the same compound?
A: 1.67 µM

Q: And the GI (HOP-62)?
A: 6.03 µM

Q: What about the GI (HOP-92) of the same compound?
A: 2.58 µM

Q: And the GI (NCI-H226)?
A: 10.4 µM

Q: And the GI (NCI-H322M)?
A: 6.89 µM

Q: And the GI (NCI-H460)?
A: 1.22 µM

Q: What about the GI (COLO 205) of the same compound?
A: 3.08 µM

Q: And the GI (HCT-116 [1])?
A: 1.07 µM

Q: And the GI (HCT-15)?
A: 1.2 µM

Q: And the GI (HT-29)?
A: 1.75 µM

Q: What about the GI (KM12) of the same compound?
A: 1.84 µM

Q: What about the GI (SF-268) of the same compound?
A: 7.34 µM

Q: What about the GI (SNB-19) of the same compound?
A: 1.51 µM

Q: What about the GI (SNB-75) of the same compound?
A: 2.39 µM

Q: What about the GI (U-251) of the same compound?
A: 1.58 µM

Q: And the GI (LOX IMVI)?
A: 1.21 µM

Q: And the GI (Malme-3M)?
A: 1.87 µM

Q: And the GI (MDA-MB-435)?
A: 1.64 µM

Q: And the GI (SK-MEL-2)?
A: 9.15 µM

Q: What about the GI (SK-MEL-5) of the same compound?
A: 1.74 µM

Q: What about the GI (UACC-257) of the same compound?
A: 2.1 µM

Q: And the GI (UACC-62)?
A: 1.89 µM

Q: What about the GI (IGROV-1) of the same compound?
A: 1.59 µM

Q: And the GI (OVCAR-3)?
A: 2.19 µM

Q: What about the GI (OVCAR-4) of the same compound?
A: 1.81 µM

Q: And the GI (OVCAR-5)?
A: 2.22 µM

Q: And the GI (OVCAR-8)?
A: 2.1 µM

Q: And the GI (NCI/ADR-RES)?
A: 1.23 µM

Q: And the GI (ACHN)?
A: 1.13 µM

Q: And the GI (TK-10)?
A: 9.05 µM

Q: What about the GI (PC-3) of the same compound?
A: 1.82 µM

Q: What about the GI (MCF7) of the same compound?
A: 1.18 µM

Q: What about the GI (MDA-MB-231) of the same compound?
A: 1.61 µM

Q: What about the GI (Hs-578T) of the same compound?
A: 1.95 µM

Q: And the GI (BT-549)?
A: 6.08 µM

Q: What about the GI (T47D) of the same compound?
A: 14.2 µM

Q: What about the Activity (Quadruplex DNA [2]) of the same compound?
A: Active

Q: What about the ΔTm (Quadruplex DNA [3]) of the same compound?
A: > 20 °C

Q: What about the ΔTm (Quadruplex DNA [4]) of the same compound?
A: > 20 °C

Q: And the inhibition [5]?
A: Active

Q: And the inhibition (Homo sapiens)?
A: Active

Q: What about the Activity (HCT-116 [6]) of the same compound?
A: Active

Q: What about the Activity (HCT-116 [7]) of the same compound?
A: Active
